Where two headings read alike, the source gives them in different places.
Columns and labels:
[1] = system: Hartley female guinea pigs; assay: Measurement of external urethral sphincter electromyography; assay type: in vivo, guinea pig; settings: Cavia porcellus, read-out: external urethral sphincter electromyography activity
Excerpt: The activating action of the compound of the formula (I) on the urethral sphincter electromyography was confirmed with the method shown below.
Hartley female guinea pigs with a body weight of 250 to 350 g were anesthetized with urethane (Sigma). The guinea pigs were fixed in a supine position and catheters (PE-50; Clay Adams) for administration of test compounds were inserted into the jugular vein. Further, a catheters (PE-160; Clay Adams), for an infusion of physiological saline into bladder and measurement of the intravesical pressure, were inserted through an incision into the dome of the bladder. Further, in order to measure the external urethral sphincter electromyography, two electrodes were inserted into both the left and right sides of the urethral opening to the urethral sphincter. The electrodes for measuring base voltages were placed under the skin of the hind part. The bladder catheter was branched over a three-way stopcock, and one was connected with a 50 mL syringe (Terumo) fixed to an infusion pump (Terumo). The other was connected to a pressure transducer (DX-100; Nihon Kohden Corporation) to transfer the signal of the transducer through an amplifier (AP-630G; Nihon Kohden Corporation) and a data acquisition system (PowerLab; AD Instruments) to a computer and record on a hard disk. The electrodes for electromyography measurement were connected to a control unit (JB-101J; Nihon Kohden Corporation) to transfer the signal through an amplifier (AP-651J; Nihon Kohden Corporation) and a data acquisition system (PowerLab; AD Instruments) to a computer and record on a hard disk. Further, the data were analyzed on the computer using a software (Chart; AD Instruments). […] The electromyography activity was analyzed by taking the lowest potential amplitude as a standard during the stabilization period and using the firing frequency over the standard amplitude as an indicator. At internals between the respective urinations (urine filling phase), the activity of the urethral sphincter electromyography was analyzed and its average value was calculated. After the stabilization period, the solvent and the test compound were administered at an increased dose at an interval of 40 minutes through the catheter placed into the jugular vein. The urethral sphincter electromyography activity after the administration of the solvent was taken as 100% and the urethral sphincter electromyography activity after the administration of the test compound was denoted as a percentage (%) of the electromyography activity after the administration of the solvent.

human 5-HT2C receptor = biological target: T1, human 5-HT2C receptor (Homo sapiens, UniProt P28335); assay: Evaluation of 5-HT2C receptor agonist activity (intracellular calcium increase, FLIPR, CHO cells stably expressing the receptor); assay type: cell-based; settings: for Emax: CHO, read-out: 5-HT2C agonist activity Emax
T1 construct: expressed in transfected cells
T1 sequence (P28335 33-458): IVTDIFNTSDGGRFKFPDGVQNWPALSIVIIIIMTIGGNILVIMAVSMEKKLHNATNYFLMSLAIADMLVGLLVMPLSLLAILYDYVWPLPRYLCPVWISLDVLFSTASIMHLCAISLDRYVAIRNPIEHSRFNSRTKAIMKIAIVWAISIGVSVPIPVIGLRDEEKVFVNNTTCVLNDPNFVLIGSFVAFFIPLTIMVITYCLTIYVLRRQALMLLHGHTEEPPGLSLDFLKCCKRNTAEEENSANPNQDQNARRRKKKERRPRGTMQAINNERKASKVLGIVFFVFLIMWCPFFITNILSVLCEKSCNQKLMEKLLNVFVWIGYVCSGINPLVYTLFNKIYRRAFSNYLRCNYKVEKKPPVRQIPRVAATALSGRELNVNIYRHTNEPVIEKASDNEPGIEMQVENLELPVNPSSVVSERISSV
Experimental: The agonist activity of the compound of the formula (I) on the 5-HT2C receptor was confirmed by the method shown below.
The human 5-HT2C receptor agonist activity was evaluated by measuring the increase of the ligand-dependent intracellular calcium concentration. CHO cells which stably expressing a human 5-HT2C receptor were used. The receptor-expressing cells were prepared by transfecting the genes of the human 5-HT2C receptor (Accession numbers: AF498983 (5-HT2C)) into CHO cells (dihydrofolic acid-deficient strain, DS Pharma Biomedical Co., Ltd.)) using a pEF-BOS vector (Nucleic Acids Research, vol. 18, No. 17). After transcription, the 5-HT2C is known to be subjected to RNA editing to cause differences in three kinds of amino acids, resulting in fourteen receptor isoforms. Among them, cells stably expressing an INI type of 5-HT2C receptor which had not been subjected to editing were used. Cells used for evaluation were cultured in a 10% fetal bovine serum (FBS)-containing medium (trade name: α-MEM, Invitrogen) at 37° C. and 5% carbon dioxide. On the day before the evaluation, the cells were suspended in a serum-free medium (trade name: CD-CHO, Invitrogen) containing 8 mM L-glutamine (trade name: L-glutamine 200 mM, Invitrogen, added to the medium at a final concentration of 8 mM) and dispensed into a 96-well poly-D-lysine-coated plate (trade name: Biocoat PDL96W Black/Clear, Japan Becton, Dickinson and Company)) at 4×10^4 cells/well and cultured at 37° C. and 5% carbon dioxide overnight. A solution including a washing solution (mixture of Hank's Balanced Salt Solution (HBSS)-sodium hydroxide (NaOH), 20 mM 2-[4-(2-hydroxyethyl)-1-piperazinyl]ethanesulfonic acid (HEPES)-sodium hydroxide (NaOH), 2.5 mM probenecid, and 0.1% bovine serum albumin (BSA)), and a 4 μM fluorescent reagent (trade name: Fluo4-AM, Dojindo Co., Ltd.) was used as a loading buffer and the medium of the 96-well plate which had been cultured overnight was replaced with a loading buffer. After leaving to stand (with light-shielding) at room temperature for 3 hours, the cells were washed with a plate washer (trade name: ELx405, BioTek Instruments, Inc.) in which a washing solution had been set up. The plates of the washed cells were set up in a system for measuring a calcium (Ca) concentration in a cell (trade name: FLIPR, Molecular Devices, Inc.). In this device, a test compound that had been dissolved in dimethyl sulfoxide and diluted in the washing solution at a predetermined concentration was added and set up to measure a change in the Ca concentrations in a cell. The difference between a maximum value and a minimum value in the change of the intracellular Ca concentration was determined and kept as measurement data.
Taking the maximum reaction of the 5-HT (agonist action with addition of 5-HT 10 μM) as 100% and the reaction of a solvent alone as 0%, the efficacy (Emax (%)) and potency (EC50 (nM)) of the present invention compound to the maximum reaction of the 5-HT were calculated with a logistic regression method.

[2] = intravenous administration at 3 mg/kg, urethane-anesthetized guinea pigs, activity after solvent taken as 100%
[3] = CHO cells stably expressing INI type human 5-HT2C receptor, intracellular Ca increase, logistic regression, read-out: 5-HT2C agonist activity EC50

Row | SMILES | response vs control in vivo at 3 mg/kg [1, 2] [%] | EC50 (human 5-HT2C receptor; [3]) [nM] | Emax (human 5-HT2C receptor) [%] | melting point [°C] | response vs control in vivo at 3 mg/kg ([1]; iv) [%] | EC50 (human 5-HT2C receptor) [nM]
1 | O=C(O)/C=C/C(=O)O.c1ccc2c(c1)OCC(CN1CCOc3cc4c(c(C5CC5)c31)CCNCC4)O2 (centres unmarked) [Example 267] | ≥ 200 | 0.51 | 99 | 179 to 182 |  | 
2 | CCOCCN1CCOc2cc3c(c(C4CC4)c21)CCNCC3.O=C(O)/C=C/C(=O)O [Example 104] | ≥ 200 | 1.1 | 107 | 140 to 145 |  | 
3 | CCO[C@H](C)CN1CCOc2cc3c(c(C4CC4)c21)CCNCC3.O=C(O)/C=C/C(=O)O [Example 315] | ≥ 200 | 2.8 | 108 | 157 to 160 |  | 
4 | COCc1cccc(CN2CCOc3cc4c(c(C5CC5)c32)CCNCC4)c1.O=C(O)/C=C/C(=O)O [Example 288] | ≥ 200 | 0.64 | 90 | 190 to 193 |  | 
5 | Cc1cccc(CN2CCOc3cc4c(c(C5CC5)c32)CCNCC4)c1.O=C(O)/C=C/C(=O)O [Example 277] | ≥ 200 | 2.3 | 95 | 192 to 195 |  | 
6 | FCCCN1CCOc2cc3c(c(C4CC4)c21)CCNCC3.O=C(O)/C=C/C(=O)O [Example 141] |  |  | 100 | 144 to 147 | ≥ 200 | 0.36
7 | O=C(O)/C=C/C(=O)O.c1c2c(c(C3CC3)c3c1OCCN3CC1CCCOC1)CCNCC2 (centres unmarked) [Example 263] | ≥ 200 | 2.8 | 96 | 186 to 189 |  | 
8 | Fc1ccc(Cl)cc1CN1CCOc2cc3c(c(C4CC4)c21)CCNCC3.O=C(O)/C=C/C(=O)O [Example 290] | ≥ 200 | 3.8 | 93 | 165 to 168 |  | 
9 | O=C(O)/C=C/C(=O)O.c1cc2c(cc1CN1CCOc3cc4c(c(C5CC5)c31)CCNCC4)OCCO2 [Example 291] | ≥ 200 | 1.2 | 93 | 165 to 168 |  | 
10 | COCCCN1CCOc2cc3c(c(C4CC4)c21)CCNCC3.O=C(O)/C=C/C(=O)O [Example 106] | ≥ 200 | 1.1 | 112 | 169 to 171 |  | 
11 | COCCCN1CCOc2cc3c(cc21)CCNCC3.O=C(O)/C=C/C(=O)O [Example 59] | ≥ 200 | 7.1 | 108 | 141 to 145 |  | 
12 | Cc1ccccc1CN1CCOc2cc3c(c(C4CC4)c21)CCNCC3.O=C(O)/C=C/C(=O)O [Example 276] | ≥ 200 | 6.4 | 104 | 163 to 166 |  | 
13 | CO[C@H](C)CN1CCOc2cc3c(c(C4CC4)c21)CCNCC3.O=C(O)/C=C/C(=O)O [Example 243] | ≥ 200 | 0.53 | 96 | 133 to 136 |  | 
14 | Fc1ccccc1CN1CCOc2cc3c(c(C4CC4)c21)CCNCC3.O=C(O)/C=C/C(=O)O [Example 265] | ≥ 200 | 1.3 | 97 | 133 to 136 |  | 
15 | c1c2c(c(C3CC3)c3c1OCCN3C[C@@H]1CCCO1)CCNCC2 [Example 215] |  | 1 | 96 | 154 to 156 | ≥ 200 | 
16 | Clc1cccc(CN2CCOc3cc4c(c(C5CC5)c32)CCNCC4)c1.O=C(O)CCC(=O)O [Example 258] | ≥ 200 | 1.9 | 97 | 139 to 141 |  | 
17 | Fc1cc(F)cc(CN2CCOc3cc4c(c(C5CC5)c32)CCNCC4)c1.O=C(O)/C=C/C(=O)O [Example 313] | ≥ 200 | 4.2 | 97 | 191 to 194 |  | 
18 | CO[C@H](CF)CN1CCOc2cc3c(c(C4CC4)c21)CCNCC3 [Example 287] | ≥ 200 | 1 | 97 |  |  | 
19 | COCCN1CCOc2cc3c(c(C4CC4)c21)CCNCC3 [Example 88] | ≥ 200 | 1.1 | 105 |  |  | 
